Measurements from patent US20220267753A1, “RATIONAL THERAPEUTIC TARGETING OF ONCOGENIC IMMUNE SIGNALING STATES IN MYELOID MALIGNANCIES VIA THE UBIQUITIN CONJUGATING ENZYME UBE2N” (CHILDREN'S HOSPITAL MEDICAL CENTER, priority 2019, published 2022).

How the values were obtained:
UBE2D1 = target: T1, UBE2D1 (Homo sapiens, UniProt P51668); test: Thioester bond formation assay; details: same biochemical assay
T1 construct: purchased Enzo Life Science BML-UW9050
Method: (§1) An in vitro Ubiquitin-E2 thioester (TE) bond formation assay was performed as described (Enzo Life Science, #BML-UW9920-0001, Farmingdale, N.Y.). The reaction was prepared as follows: 10×E2 (UBE2N/Mms2, No. BML-UW9565; UbcH5a, No. BML-UW9050; or UbcH6, Prod. No. BML-UW8710) were incubated with UC-764864 or UC-764865 at 1 or 2 μM for 30 minutes at room temperature. After the incubation period, the following reagents were added to the reaction: distilled water, 10× ubiquitination buffer, inorganic pyrophosphatase solution (100 U/mL in 20 mM Tris-HCl, pH 7.5, Sigma, 83205, St. Louis, Mo.), 50 mM DTT, 0.1 M Mg-ATP, 20×E1 (recombinant human ubiquitin-activating enzyme) and 20× biotinylated ubiquitin to a final volume of 10 p.l. The mixture was incubated for 4 hours at 37° C. The reaction was stopped by adding 10 p.l 2× non-reducing gel loading buffer. 15 p.l of the samples were run on SDS-PAGE gels and transferred to PVDF membrane. […] After washing the membrane for 6×10 mins with TBS-T on a rocking platform, total ubiquitin was detected with ECL detection reagent (Pierce™ ECL Western Blotting Substrate, #32106, Appleton, Wis.) according to the manufacturer's instructions. Detect emitted signal with Biorad ChemiDoc™ MP and analyzed with Image lab software 6.0.1 (Biorad, Hercules, Calif.) or Image J [67]. […]

UBE2E1 = target: T2, UBE2E1 (Homo sapiens, UniProt P51965); test: Thioester bond formation assay; details: same biochemical assay
T2 construct: purchased Enzo Life Science BML-UW8710
T2 sequence (P51965 whole entry): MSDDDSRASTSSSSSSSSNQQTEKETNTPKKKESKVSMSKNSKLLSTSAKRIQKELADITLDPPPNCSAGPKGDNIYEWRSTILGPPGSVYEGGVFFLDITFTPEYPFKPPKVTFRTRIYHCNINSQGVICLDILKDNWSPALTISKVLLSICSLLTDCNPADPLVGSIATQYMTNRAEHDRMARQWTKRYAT
Method: as §1

THP-1 cells = test: Colony formation assay of THP-1 cells with shControl or shUBE2N; assay type: cell-based, human
Source text: For knockdown studies, UBE2N shRNA template oligonucleotides from the TRC shRNA library cloned into the pLKO.1 TRC cloning vector (Addgene: #10878) and pLKO.1 TRC cloning vector (Table 3). The puromycin gene in pLKO.1 was replaced with GFP. pLKO.1 TRC control was used as non-silencing control (Addgene: #10879). For production of lentiviral particles, lentiviral shRNA expression constructs were transfected together with packaging vectors into 293T producer cells using TransIT transfection reagent (Mirus, MIR 2306), supernatants were harvested after 48 and 72 hours, and concentrated by ultracentrifugation. […] UBE2N knockdown efficiency was determined by quantitative real time PCR (qRT-PCR) and western blot and quantified as described elsewhere. […] Levels of overexpression of UBE2N were determined by western blot.
In order to determine viability after UBE2N knockdown or inhibition, 1×10^6 AML cells were washed with PBS and mixed with pre-diluted APC-conjugated Annexin V (BD Pharmigen, Franklin Lakes, N.J.) and Propidium iodide (PI) (Invitrogen ThermoFisher 00-6990-42, Waltham, Mass.). […] Colonies were scored after 7 days in culture. […] Colonies were scored at 7 days. […] Colonies were manually scored at 14-16 days after plating or counted with STEMVision (StemCell Technologies, Vancouver, CA).

T1 sequence (P51668 whole entry): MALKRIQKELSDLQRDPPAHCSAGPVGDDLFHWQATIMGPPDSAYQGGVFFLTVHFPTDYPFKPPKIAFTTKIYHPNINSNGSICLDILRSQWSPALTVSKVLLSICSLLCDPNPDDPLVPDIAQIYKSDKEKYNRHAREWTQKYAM

CCc1ccc(C(=O)C=CSc2nc3ccc(C)cc3[nH]2)cc1 [UC-764864, 1-(4-ethylphenyl)-3-[(6-methyl-1H-benzimidazol-2-yl)sulfanyl]prop-2-en-1-one]
interference with activity of UBE2D1 (UBE2D1): did not interfere
interference with activity of UBE2E1 (UBE2E1): did not interfere
leukemic colony formation of THP-1 cells following knockdown of UBE2N (THP-1 cells): did not significantly further suppress
leukemic progenitor function (colony formation) of THP-1-shControl cells (THP-1 cells): significantly repressed
